These results are taken from ChEMBL document CHEMBL1777783, “The synthesis and biological evaluation of 2-amino-4,5,6,7,8,9-hexahydrocycloocta[b]thiophenes as allosteric modulators of the A1 adenosine receptor” (Bioorg Med Chem Lett, 2011).

Structures are written as SMILES. The source made the active and inactive calls. The calls are words filed in the database; no cut-off is given here.

For assay [1], the target named is T1, Adenosine receptor A1 (Homo sapiens) (UniProt P30542).
T1 sequence (whole entry): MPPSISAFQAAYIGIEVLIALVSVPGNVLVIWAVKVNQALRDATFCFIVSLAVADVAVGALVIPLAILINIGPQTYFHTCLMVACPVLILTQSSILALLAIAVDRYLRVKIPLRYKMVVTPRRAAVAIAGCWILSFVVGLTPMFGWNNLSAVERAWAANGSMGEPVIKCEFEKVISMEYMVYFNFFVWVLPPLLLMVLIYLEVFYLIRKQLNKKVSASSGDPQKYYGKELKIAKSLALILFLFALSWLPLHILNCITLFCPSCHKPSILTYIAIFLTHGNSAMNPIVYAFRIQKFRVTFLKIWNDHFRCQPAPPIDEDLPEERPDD
In words: Allosteric modulation at human adenosine A1 receptor expressed in CHO FlpIn cells assessed as increase in EC50 concentration of N(6)-(R-phenylisopropyl)adenosine receptor agonist-induced ERK1/2 phosphorylation at 3 uM relative to control. It counts as functional, cell-based.

Assay [2] concerns the target T1, Adenosine receptor A1 (Homo sapiens). Briefly: Allosteric modulation at human adenosine A1 receptor expressed in CHO FlpIn cells assessed as increase in EC50 concentration of N(6)-(R-phenylisopropyl)adenosine receptor agonist-induced ERK1/2 phosphorylation at 10 uM relative to control. The assay is classed as functional, cell-based.
Assay [3] shares this target. Briefly: Allosteric modulation at human adenosine A1 receptor expressed in CHO FlpIn cells assessed as increase in ERK1/2 phosphorylation at 3 to 10 uM relative to control. It counts as cell-based.
The target is the same in assay [4]. In words: Allosteric modulation at human adenosine A1 receptor expressed in CHO FlpIn cells assessed as increase in leftward shift of N(6)-(R-phenylisopropyl)adenosine-mediated ERK1/2 phosphorylation curve at 0.1 to 10 uM. The assay is classed as cell-based.
Assay [5] shares this target. Briefly: Binding affinity to human adenosine A1 receptor allosteric site expressed in CHO FlpIn cells. It counts as cell-based.

As for `Nc1sc2c(c1C(=O)NCc1ccccc1)CCCCCC2`, the Activity turned out to be 48% in assay [1] and 50% in assay [2]. Also, the outcome in assay [3] was inactive.

In the case of `Nc1sc2c(c1C(=O)c1ccc(Cl)cc1)CCCCCC2`, the Activity was determined as 56% in assay [1] and 63% in assay [2]. Further, the outcome in assay [3] was Active.

Take `Nc1sc2c(c1C(=O)NCc1cccc(Cl)c1)CCCCCC2`: the values for the Activity in assay [1] and in assay [2] were 49% and 47%, respectively. In addition, the result in assay [3] was inactive.

`NC(=O)c1c(N)sc2c1CCCCC2`: the values for the Activity in assay [1] and in assay [2] were 47% and 50%, respectively. The result in assay [3] was inactive.

Consider `Cc1ccc(C(=O)c2c(N)sc3c2CCC3)cc1`, for which the Activity in assay [1] came out at 50%; in assay [2], 56%. Also, the result in assay [3] was inactive.

`Nc1sc2c(c1C(=O)c1cccc(C(F)(F)F)c1)CCC2`: the Activity in assay [1] is 75%; in assay [2] it was 98%. Also, the result in assay [3] was Active.

On to `NC(=O)c1c(N)sc2c1CCCCCC2`, for which the Activity in assay [1] and in assay [2] was 48% each time. Moreover, the result in assay [3] was inactive.

Regarding `NNC(=O)c1c(N)sc2c1CCCCCC2`, the Activity in assay [1] and in assay [2] was 48% throughout. Besides, the outcome in assay [3] was inactive.

In the case of `Nc1sc2c(c1C(=O)c1cccc(C(F)(F)F)c1)CCCCCC2`, the Activity in assay [1] amounted to 57%; in assay [2] it was 65%. Besides, in assay [3], the outcome was inactive. For the same molecule, the result in assay [4] was Active. In assay [5], the pKb was found to be 5.07.

As for `Cc1ccc(C(=O)c2c(N)sc3c2CCCCCC3)cc1`, the Activity in assay [1] came to 56%; in assay [2], 75%. Besides, the outcome in assay [3] was inactive.

As to `Nc1sc2c(c1C(=O)NNc1ccccc1)CCCCCC2`, the Activity stood at 47% in assay [1] and 43% in assay [2]. In addition, the outcome in assay [3] was inactive.

Take `NNC(=O)c1c(N)sc2c1CCCCC2`: the Activity turned out to be 52% in assay [1] and 51% in assay [2]. Further, in assay [3], the result was inactive.

In the case of `Nc1sc2c(c1C(=O)c1ccccc1)CCCCCC2`, the Activity in assay [1] was 49%; in assay [2] it was 36%. Further, the result in assay [3] was inactive.

Turning to `Cc1ccc(C(=O)c2c(N)sc3c2CCCC3)cc1`, the figures for the Activity in assay [1] and in assay [2] were 70% and 91%, respectively. The outcome in assay [3] and in assay [4] was Active. The molecule further returned a pKb in assay [5] of 5.1.

As for `Cc1ccc(C(=O)c2c(N)sc3c2CCCCC3)cc1`, the Activity was determined as 55% in assay [1] and 68% in assay [2]. Moreover, the outcome in assay [3] was inactive.

Consider `Nc1sc2c(c1C(=O)c1cccc(C(F)(F)F)c1)CCCC2`, for which the Activity was found to be 73% in assay [1] and 88% in assay [2]. Moreover, the result in assay [3] was Active.

As for `Nc1sc2c(c1C(=O)NNc1ccccc1)CCCCC2`, the Activity in assay [1] turned out to be 44%; in assay [2], 42%. In assay [3], the outcome was inactive.

Regarding `Nc1sc2c(c1C(=O)c1cccc(C(F)(F)F)c1)CCCCC2`, the Activity in assay [1] stood at 53%; in assay [2] it was 74%. In assay [3], the result was inactive.
